From PubChem BioAssay (NCI)
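Interpolation was linear, between the two tested concentrations surrounding the appropriate level; five concentrations were tested over 48 hours in 96-well plates. Abbreviation: GI50, concentration required for 50% inhibition of growth. TGI denotes the concentration required for complete inhibition of growth.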

Tests used:
Assay in all cases: inhibition of tumour cell growth, NCI panel, 48 h
HOP-92 NSCLC = test system: HOP-92 NSCLC
RPMI-8226 leukemia = test system: RPMI-8226 leukemia
ACHN renal = test system: ACHN renal
BT-549 breast = test system: BT-549 breast
TK-10 renal = test system: TK-10 renal
HL-60(TB) leukemia = test system: HL-60(TB) leukemia
NCI/ADR-RES ovarian = test system: NCI/ADR-RES ovarian
MDA-N = test system: MDA-N
SW-620 colon = test system: SW-620 colon
LOX IMVI melanoma = test system: LOX IMVI melanoma

Structure (SMILES) | TGI (HOP-92 NSCLC) | TGI (RPMI-8226 leukemia) | TGI (ACHN renal) | TGI (BT-549 breast) | TGI (TK-10 renal) | TGI (HL-60(TB) leukemia) | TGI (NCI/ADR-RES ovarian) | TGI (MDA-N) | TGI (SW-620 colon) | TGI (LOX IMVI melanoma) | GI50 (SW-620 colon) | GI50 (RPMI-8226 leukemia) | GI50 (ACHN renal) | GI50 (BT-549 breast) | GI50 (LOX IMVI melanoma) | GI50 (TK-10 renal) | GI50 (NCI/ADR-RES ovarian)
CCN1CCCC(Nc2cc(C)nc(/N=C(/N)Nc3ccc(Cl)c(Cl)c3)n2)C1 (configuration not stated) | 3.33 µM | 2.3 µM | 5.56 µM | 3.29 µM | 3.22 µM | 1.33 µM | 8.58 µM | 3.16 µM |  |  |  |  |  |  |  |  | 
COc1cc(OC)cc(-n2c(N)c(-c3nc4ccccc4n3C)c3ccc([N+](=O)[O-])cc3c2=O)c1 | 68 µM | > 100 µM | > 100 µM | > 100 µM | > 100 µM |  | > 100 µM | > 100 µM | > 100 µM | > 100 µM |  |  |  |  |  |  | 
CC(=O)C12C[C@](C#N)(N3CCCCCC3)C1C=Cc1ccccc12 (some centres not stated) |  | > 100 µM | > 100 µM | > 100 µM | > 100 µM | > 100 µM | > 100 µM | > 100 µM | > 100 µM |  |  |  |  |  |  |  | 
Cn1c2c(c3ccccc31)CCN1C(=O)C3SC21C1C(=O)N(c2ccccc2)C(=O)C31 (configuration not stated) | > 86.7 µM | > 100 µM | > 100 µM | > 100 µM | > 79.1 µM | > 77.3 µM | > 100 µM | > 100 µM | > 100 µM | > 100 µM |  |  |  |  |  |  | 
CC1C2CC(C/C2=N/O)C1(C)C (configuration not stated) | > 100 µM |  | > 100 µM | > 100 µM | > 100 µM | > 100 µM |  | > 100 µM | > 100 µM |  |  |  |  |  |  |  | 
[N-]=[N+]=NC[C@H]1OCO[C@H](CN=[N+]=[N-])[C@H]2OCCOCCOc3ccccc3OCCOCCO[C@@H]21 |  | > 100 µM |  | > 100 µM | > 100 µM | > 100 µM | > 100 µM | > 100 µM | > 100 µM | > 100 µM |  |  |  |  |  |  | 
CC(C)C(C/C=C1/CC(CO)(COC(=O)C2CCCCC2)OC1=O)C(C)C (configuration not stated) | 29.8 µM |  | 30.2 µM | 54.8 µM | 37.4 µM |  | 42.7 µM | 38.8 µM | 42.5 µM | 29.4 µM |  |  |  |  |  |  | 
CC(C)=Nn1cnc(C(=N)C#N)c1N |  | > 100 µM | > 100 µM | > 100 µM | > 100 µM | > 100 µM | > 100 µM | > 100 µM | > 100 µM |  |  |  |  |  |  |  | 
CC(=O)Nc1ccc(C(=O)N2N=C(C)/C(=C/c3cccc([N+](=O)[O-])c3)C2=O)cc1 |  | > 100 µM | > 100 µM |  | > 100 µM | > 100 µM |  |  | > 100 µM | > 100 µM |  |  |  |  |  |  | 
C=CCC1(CC)C(=O)NC(=O)NC1=O |  | > 100 µM | > 100 µM |  | > 100 µM | > 100 µM |  |  | > 100 µM | > 100 µM |  |  |  |  |  |  | 
COc1cc(OC)cc(-c2n/c(=C\c3c(O)[nH]c4ccc(Cl)cc34)cc3c2=Nc2ccccc2-3)c1 |  | > 100 µM | 20.7 µM | 9.75 µM | 8.96 µM |  | 10.8 µM |  | 8 µM | 4.34 µM | 2660 nM | 16.3 µM | 5.37 µM | 3 µM | 1920 nM | 3.79 µM | 3.03 µM
Cc1ccc(SC[C@@]2(C(F)F)NC(=O)NC2=O)cc1 | > 100 µM | > 100 µM | > 100 µM | > 100 µM | > 100 µM | > 100 µM | > 100 µM |  | > 100 µM | > 100 µM |  |  |  |  |  |  | 
CC(C)(C)OC(=O)NCC(=O)NC1C/C(=N\O)c2sccc21 (configuration not stated) |  |  |  | > 100 µM | > 100 µM | > 100 µM | > 100 µM | > 100 µM | > 100 µM | > 100 µM |  |  |  |  |  |  | 
O=c1[nH]cnc2sc(=S)c3c(c12)CCC3 | 66.3 µM | 43 µM | 33.6 µM |  | 61.9 µM | 57.6 µM | > 100 µM |  | 49.2 µM | > 100 µM |  |  |  |  |  |  | 
CSc1ncc2c(n1)-c1ccccc1OC2NC(C)(C)C (configuration not stated) | > 100 µM | > 100 µM | > 100 µM | > 100 µM | > 100 µM | > 100 µM |  |  | > 100 µM | > 100 µM |  |  |  |  |  |  | 
COC(=O)C1=C(C)N(NC(=O)c2ccccc2)C2(O)CCCC(=O)C12C (configuration not stated) | > 100 µM | > 100 µM | > 100 µM |  | > 100 µM |  |  |  | > 100 µM | > 100 µM |  |  |  |  |  |  | 
Cc1ccnc(NC(=S)Nc2cccc(Cl)c2)c1 |  | > 100 µM |  | > 100 µM | > 100 µM | > 100 µM | > 100 µM |  | > 100 µM | > 100 µM |  |  |  |  |  |  | 
Cc1ccc(S(=O)(=O)c2ccc([N+](=O)[O-])o2)cc1 | 4.32 µM |  | 3.03 µM | 6.16 µM | 3.04 µM |  | 5.36 µM |  | 1.73 µM | 2.91 µM |  |  |  |  |  |  | 
O=C(O)c1cc(Cl)cc2c1NC1(N2)C(=O)Nc2ccccc21 (configuration not stated) | > 100 µM | > 100 µM | > 100 µM | > 100 µM | > 100 µM |  | > 100 µM | > 100 µM | > 100 µM | > 100 µM |  |  |  |  |  |  | 
CSCCCNC(=O)c1csc(-c2csc(CCNC(=O)CNC(=O)CNC(=O)CNC(=O)OC(C)(C)C)n2)n1 | > 100 µM |  | > 100 µM | > 100 µM | > 100 µM |  | > 100 µM | > 100 µM | > 100 µM | > 100 µM |  |  |  |  |  |  | 
CCn1c2ccc(O)c(C(=O)OC)c2c2cc3ccccc3c(O)c21 | 21.3 µM | 33.3 µM | 54.1 µM | 50.7 µM | 55.7 µM | 60 µM | 57.2 µM | 72.4 µM |  |  |  |  |  |  |  |  | 
CC1=C[C@@H](C)C[C@]2(C)CC[C@H](O2)[C@]23CC[C@](C)(C[C@H](O2)[C@@H]2O[C@@](C)(CC2=O)[C@@H](O)[C@H]2CC[C@@]4(CCC[C@@H](O4)[C@H](C)C(=O)O[C@H]4C[C@H]([C@]5(O)OCC[C@H](C)[C@@H]5O)O[C@H]4C=C1)O2)O3 | 0.00517 µM |  | > 5.25 µM | 0.0103 µM | 0.0277 µM | > 10 µM | > 10 µM | > 10 µM | > 10 µM | > 10 µM |  |  |  |  |  |  | 
Nc1ccc(-c2nc3ccc(F)cc3s2)cc1 | > 100 µM | 91.7 µM | 66.6 µM | > 100 µM | 78.8 µM |  | > 100 µM | > 100 µM | > 100 µM | > 100 µM |  |  |  |  |  |  | 
